pIC50: −log10 of the molar value.
Legend:
[1] = system: HL-60; test: Antiinflammatory activity in human HL-60 derived macrophage-like cells assessed as inhibition of LPS-induced TNFalpha production at 50 uM treated 30 mins before LPS stimulation measured after 24 hrs by ELISA; type: functional
[2] = system: HL-60; test: Cytotoxicity against human HL-60 derived macrophage-like cells at 50 uM after 1 hr by MTT assay; type: cell-based; settings: hl-60, 1 h
[3] = system: HL-60; test: Antiinflammatory activity in human HL-60 derived macrophage-like cells assessed as inhibition of LPS-induced IL-6 production treated 30 mins before LPS stimulation measured after 24 hrs by ELISA; type: functional, cell-based
[4] = system: HL-60; test: Antiinflammatory activity in human HL-60 derived macrophage-like cells assessed as inhibition of LPS-induced TNFalpha production treated 30 mins before LPS stimulation measured after 24 hrs by ELISA; type: functional, cell-based
[5] = system: HL-60; test: Antiinflammatory activity in human HL-60 derived macrophage-like cells assessed as inhibition of LPS-induced IL-6 production at 50 uM treated 30 mins before LPS stimulation measured after 24 hrs by ELISA; type: functional

Row | Structure (SMILES) | pIC50 [3] | pIC50 [4] | inhibition at 50 µM [1] | Activity [2] | inhibition at 50 µM [5]
1 | Nc1nc(-c2cccc([N+](=O)[O-])c2)nc2nc3c(Cl)ccc(Cl)c3nc12 | – | – | 0% | 1.5% | 41.3%
2 | Cc1ccc(-c2nc(N)c3nc4c(Cl)ccc(Cl)c4nc3n2)cc1F | 4.58 | 5.24 | 80% | 1.8% | 93%
3 | Nc1ccc(-c2nc(N)c3nc4c(Cl)ccc(Cl)c4nc3n2)cc1 | 4.59 | 4.44 | 63.2% | 15.7% | 85.1%
4 | C[S+]([O-])c1ccc(-c2nc(-c3ccncc3)c(-c3ccc(F)cc3)[nH]2)cc1 (stereo unspecified) [SB-203580] | – | 5.07 | 68.1% | 0% | 8.4%

More lines, in order of rising pIC50 [3], values ahead:

Row | pIC50 [3] | pIC50 [4] | Structure (SMILES) | inhibition at 50 µM [1] | Activity [2] | inhibition at 50 µM [5]
5 | 4.33 | – | Nc1nc(-c2ccc(Cl)cc2)nc2nc3c(Cl)ccc(Cl)c3nc12 | 6.7% | 2.5% | 54.3%
6 | 4.45 | 5.06 | Nc1nc(-c2ccc(C(F)(F)F)cc2)nc2nc3c(Cl)ccc(Cl)c3nc12 | 67.2% | 0% | 83%
7 | 4.46 | 4.44 | Nc1nc(-c2ccccc2)nc2nc3c(Cl)ccc(Cl)c3nc12 | 75.2% | 13% | 73.8%
8 | 4.59 | 5.22 | Cc1cccc(-c2nc(N)c3nc4c(Cl)ccc(Cl)c4nc3n2)c1 | 100% | 0.2% | 95.1%
9 | 4.60 | 5.13 | Cc1ccc(-c2nc(N)c3nc4c(Cl)ccc(Cl)c4nc3n2)cc1 | 87.4% | 3.9% | 95.4%
10 | 4.64 | 5.14 | Nc1nc(-c2cc(C(F)(F)F)cc(C(F)(F)F)c2)nc2nc3c(Cl)ccc(Cl)c3nc12 | 99.7% | 0% | 100%
